The subject of assay [1] is TC1. In words: Antitumor activity against HPV16 associated TC1 cells xenografted C57BL/6(H2b) mouse.
For assay [2], the system named is TC1. In words: Antitumor activity against HPV16 associated TC1 cells xenografted C57BL/6(H2b) mouse at 40 ug. The assay is classed as functional.

Structures are written as SMILES. Activity calls are given as the source filed them. The calls are words filed in the database; no cut-off is given here. *1 amine or outer side, *2 acyl side, *3 side chain or, on linkers, in order; H or OH if unused. Where a SMILES comes first, the peptide text is derived from it. [ ]: non-standard residue; d: D form. The star is where a group is joined. ξ: configuration not given here. X3 = CC(=O)OC[C@@H]1O[C@H](N*)[C@H](OC(C)=O)[C@H](OC(C)=O)[C@H]1OC(C)=O; X2 = OC[C@@H]1O[C@H](N*)[C@@H](O)[C@H](O)[C@H]1O; X1 = OC[C@@H]1O[C@H](N*)[C@H](O)[C@H](O)[C@H]1O; Ile(3ξ) = CCC(C)[C@H](N)C(=O)O; Thr(3ξ) = CC(O)[C@H](N)C(=O)O; Suc = O=C(CCC(=O)[*:2])[*:1]

`CC[C@H](C)[C@H](NC(=O)[C@@H](NC(=O)[C@@H](N)CO)[C@@H](C)CC)C(=O)N[C@@H](CC(N)=O)C(=O)N[C@@H](Cc1ccccc1)C(=O)N[C@@H](CCC(=O)O)C(=O)N[C@@H](CCCCN)C(=O)N[C@@H](CC(C)C)C(=O)O`: the result in the assay on TC1 [1] was inactive. For the compound `CCC(C)[C@H](NC(=O)[C@H](CC(N)=O)NC(=O)[C@H](Cc1ccc(O)cc1)NC(=O)[C@H](Cc1cnc[nH]1)NC(=O)[C@H](C)NC(=O)[C@H](CCCNC(=N)N)NC(=O)[C@H](CC(=O)O)NC(=O)[C@@H]1CCCN1C(=O)[C@H](CCC(=O)O)NC(=O)[C@H](C)NC(=O)[C@H](CCC(N)=O)NC(=O)CCC(=O)N[C@H]1O[C@@H](CO)[C@H](O)[C@@H](O)[C@H]1O)C(=O)N[C@H](C(=O)N[C@H](C(=O)N[C@@H](Cc1ccccc1)C(=O)N[C@@H](CS)C(=O)N[C@@H](CS)C(=O)N[C@@H](CCCCN)C(=O)N[C@@H](CS)C(=O)N[C@@H](CC(=O)O)C(N)=O)C(C)O)C(C)C` (some centres undefined) ({X1-Suc}-QAEPDRAHYN[Ile(3ξ)]V[Thr(3ξ)]FCCKCD-NH2), the result with TC1 [2] was inactive.

On to `CCC(C)[C@H](NC(=O)[C@H](CC(N)=O)NC(=O)[C@H](Cc1ccc(O)cc1)NC(=O)[C@H](Cc1cnc[nH]1)NC(=O)[C@H](C)NC(=O)[C@H](CCCNC(=N)N)NC(=O)[C@H](CC(=O)O)NC(=O)[C@@H]1CCCN1C(=O)[C@H](CCC(=O)O)NC(=O)[C@H](C)NC(=O)[C@H](CCC(N)=O)NC(=O)CCC(=O)N[C@H]1O[C@@H](CO)[C@H](O)[C@@H](O)[C@@H]1O)C(=O)N[C@H](C(=O)N[C@H](C(=O)N[C@@H](Cc1ccccc1)C(=O)N[C@@H](CS)C(=O)N[C@@H](CS)C(=O)N[C@@H](CCCCN)C(=O)N[C@@H](CS)C(=O)N[C@@H](CC(=O)O)C(N)=O)C(C)O)C(C)C` (some centres undefined) ({X2-Suc}-QAEPDRAHYN[Ile(3ξ)]V[Thr(3ξ)]FCCKCD-NH2), for which, in the assay on TC1 [2], the outcome was inactive. Same read-out and setting: the result for `CCC(C)[C@H](NC(=O)[C@H](CC(N)=O)NC(=O)[C@H](Cc1ccc(O)cc1)NC(=O)[C@H](Cc1cnc[nH]1)NC(=O)[C@H](C)NC(=O)[C@H](CCCNC(=N)N)NC(=O)[C@H](CC(=O)O)NC(=O)[C@@H]1CCCN1C(=O)[C@H](CCC(=O)O)NC(=O)[C@H](C)NC(=O)[C@H](CCC(N)=O)NC(=O)CCC(=O)N[C@H]1O[C@@H](COC(C)=O)[C@H](OC(C)=O)[C@@H](OC(C)=O)[C@H]1OC(C)=O)C(=O)N[C@H](C(=O)N[C@H](C(=O)N[C@@H](Cc1ccccc1)C(=O)N[C@@H](CS)C(=O)N[C@@H](CS)C(=O)N[C@@H](CCCCN)C(=O)N[C@@H](CS)C(=O)N[C@@H](CC(=O)O)C(N)=O)C(C)O)C(C)C` (some centres undefined) ({X3-Suc}-QAEPDRAHYN[Ile(3ξ)]V[Thr(3ξ)]FCCKCD-NH2) reads “inactive”.

(Values after ChEMBL document CHEMBL1148777, “Toward the development of prophylactic and therapeutic human papillomavirus type-16 lipopeptide vaccines” (J Med Chem, 2007).)
